Assay results published in patent US20240252488A1 (KOREA RESEARCH INSTITUTE OF CHEMICAL TECHNOLOGY, priority 2020, published 2024).

Legend:
[1] = tested on: FADD−/− Jurkat cells; experiment: Necroptosis inhibition assay, TNF-α-induced necroptosis (CellTiter-Glo 2.0); type: cell-based, human; details: TNF-α 15 ng/mL; for Necroptosis inhibition assay (Rescue %) 1 μM: compound 1 μM; for Necroptosis inhibition assay (Rescue %) 10 μM: compound 10 μM
In short: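 FADD−/− Jurkat cells preincubated 30 min at room temperature with compound at 0.1, 1 and 10 μM final, then stimulated with TNF-α (15 ng/mL final) for 20–24 h at 37 °C, 5% CO2. Viability read as ATP luminescence; cytotoxicity and necroptosis inhibition rate calculated from luminescence values.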

[2] = target: T1, MLKL (Homo sapiens, UniProt Q8NB16); experiment: MLKL degradation assay in HepG2 cell line (western blot); type: cell-based; design: endogenous in cells; host or cells: HepG2 or HaCaT; details: cell line not given; for Degradation assay (Degradation %) 1 μM: compound 1 μM; for Degradation assay (Degradation %) 10 μM: compound 10 μM
T1 sequence (Q8NB16 1-471): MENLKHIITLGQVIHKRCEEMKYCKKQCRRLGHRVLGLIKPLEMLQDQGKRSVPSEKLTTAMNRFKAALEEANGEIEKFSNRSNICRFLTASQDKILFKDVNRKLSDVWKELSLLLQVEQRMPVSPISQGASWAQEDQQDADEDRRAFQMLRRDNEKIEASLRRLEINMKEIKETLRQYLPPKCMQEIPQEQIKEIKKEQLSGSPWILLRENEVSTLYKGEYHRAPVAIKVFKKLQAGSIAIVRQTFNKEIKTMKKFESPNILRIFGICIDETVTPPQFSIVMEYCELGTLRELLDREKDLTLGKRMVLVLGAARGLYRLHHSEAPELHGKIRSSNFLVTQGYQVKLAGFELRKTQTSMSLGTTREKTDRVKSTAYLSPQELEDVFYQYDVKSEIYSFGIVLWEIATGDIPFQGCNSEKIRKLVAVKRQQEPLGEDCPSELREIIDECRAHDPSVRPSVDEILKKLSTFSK
In short: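 HepG2 cells were treated 20-24 h at 37 °C with compound at 1 or 10 μM final. RIPA lysates were normalized by BCA, and 10-15 μg protein per lane was resolved by SDS-PAGE. MLKL was detected by western blot with chemiluminescence.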

[3] = target: T1, MLKL; experiment: Measurement of binding affinity with MLKL receptor (competitive binding assay, Kd); design: made in house; host or cells: HEK 293 cell line (T7 phage in E. coli BL21-derived host is also described)
In short: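 Kd comes from a bead-based competition format: compound-dependent loss of DNA-tagged, HEK 293-expressed MLKL capture, measured as eluate kinase by qPCR. Final DMSO is 0.9%.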

Nc1ncc(-c2cnn(C3CN(CC4CCN(C(=O)CNc5cccc6c5C(=O)N(C5CCC(=O)NC5=O)C6=O)CC4)C3)c2)nc1C(=O)OC(C(=O)Nc1ccc(F)cc1)c1ccccc1 (stereo not shown) [TDH-296, 2-((4-fluorophenyl)amino)-2-oxo-1-phenylethyl 3-amino-6-(1-(1-((1-((2-(2,6-dioxopiperidin-3-yl)-1,3-dioxoisoindolin-4-yl)glycyl)piperidin-4-yl)methyl)azetidin-3-yl)-1H-pyrazol-4-yl)pyrazine-2-carboxylate]
Necroptosis inhibition assay (Rescue %) 1 μM [1]: 25.58% | Necroptosis inhibition assay (Rescue %) 10 μM [1]: 26.91% | Degradation assay (Degradation %) 1 μM [2]: 75.78% | Degradation assay (Degradation %) 10 μM [2]: 62.01% | Kd [3]: 22 nM

Nc1ncc(-c2cnn(C3CN(CC4CCN(C(=O)CNc5ccc6c(c5)C(=O)N(C5CCC(=O)NC5=O)C6=O)CC4)C3)c2)nc1C(=O)OC(C(=O)Nc1ccc(F)cc1)c1ccccc1 (stereo not shown) [TDH-297, 2-((4-fluorophenyl)amino)-2-oxo-1-phenylethyl 3-amino-6-(1-(1-((1-((2-(2,6-dioxopiperidin-3-yl)-1,3-dioxoisoindolin-5-yl)glycyl)piperidin-4-yl)methyl)azetidin-3-yl)-1H-pyrazol-4-yl)pyrazine-2-carboxylate]
Necroptosis inhibition assay (Rescue %) 1 μM [1]: 74.28% | Necroptosis inhibition assay (Rescue %) 10 μM [1]: 63.92% | Degradation assay (Degradation %) 1 μM [2]: 76.86% | Degradation assay (Degradation %) 10 μM [2]: 70.16% | Kd [3]: 13 nM

Nc1ncc(-c2cnn(C3CN(CC4CCN(C(=O)COc5cccc6c5C(=O)N(C5CCC(=O)NC5=O)C6=O)CC4)C3)c2)nc1C(=O)OC(C(=O)Nc1ccc(F)cc1)c1ccccc1 (stereo not shown) [TDH-298, 2-((4-fluorophenyl)amino)-2-oxo-1-phenylethyl 3-amino-6-(1-(1-((1-(2-((2-(2,6-dioxopiperidin-3-yl)-1,3-dioxoisoindolin-4-yl)oxy)acetyl)piperidin-4-yl)methyl)azetidin-3-yl)-1H-pyrazol-4-yl)pyrazine-2-carboxylate]
Necroptosis inhibition assay (Rescue %) 1 μM [1]: 41.64% | Necroptosis inhibition assay (Rescue %) 10 μM [1]: 66.6% | Degradation assay (Degradation %) 1 μM [2]: 45.8% | Degradation assay (Degradation %) 10 μM [2]: 78.83% | Kd [3]: 9.8 nM

Nc1ncc(-c2cnn(C3CN(CC4CCN(C(=O)COc5ccc6c(c5)C(=O)N(C5CCC(=O)NC5=O)C6=O)CC4)C3)c2)nc1C(=O)OC(C(=O)Nc1ccc(F)cc1)c1ccccc1 (stereo not shown) [TDH-299, 2-((4-fluorophenyl)amino)-2-oxo-1-phenylethyl 3-amino-6-(1-(1-((1-(2-((2-(2,6-dioxopiperidin-3-yl)-1,3-dioxoisoindolin-5-yl)oxy)acetyl)piperidin-4-yl)methyl)azetidin-3-yl)-1H-pyrazol-4-yl)pyrazine-2-carboxylate]
Necroptosis inhibition assay (Rescue %) 1 μM [1]: 75.61% | Necroptosis inhibition assay (Rescue %) 10 μM [1]: 62.7% | Degradation assay (Degradation %) 1 μM [2]: 79.84% | Degradation assay (Degradation %) 10 μM [2]: 89.54% | Kd [3]: 7.2 nM

Nc1ncc(-c2cnn(C3CCN(CCC4CCN(C(=O)COc5ccc6c(c5)C(=O)N(C5CCC(=O)NC5=O)C6=O)CC4)CC3)c2)cc1C(=O)OC(C(=O)Nc1ccc(F)cc1)c1ccccc1 (stereo not shown) [TDH-300, 2-((4-fluorophenyl)amino)-2-oxo-1-phenylethyl 2-amino-5-(1-(1-(2-(1-(2-((2-(2,6-dioxopiperidin-3-yl)-1,3-dioxoisoindolin-5-yl)oxy)acetyl)piperidin-4-yl)ethyl)piperidin-4-yl)-1H-pyrazol-4-yl)nicotinate]
Necroptosis inhibition assay (Rescue %) 1 μM [1]: 55.98% | Necroptosis inhibition assay (Rescue %) 10 μM [1]: 38.09% | Degradation assay (Degradation %) 1 μM [2]: 54.31% | Degradation assay (Degradation %) 10 μM [2]: 69.42% | Kd [3]: 9 nM
